# Measurements: ChEMBL document CHEMBL5465560, “Selectivity Literature for EUbOPEN Chemogenomic Library” (2024)
# Columns and labels:
# [1] = biological target: Tyrosine-protein kinase CSK (Homo sapiens) (UniProt P41240); test: Selectivity interaction (Millipore kinase profiler) EUB0000124b CSK; conditions: at 10 µM
# [2] = biological target: T1, Serine/threonine-protein kinase RIO3 (Homo sapiens) (UniProt O14730); test: Selectivity interaction (KinomeScan (DiscoverX)) EUB0000695a RIOK3; conditions: at 100 nM
# T1 sequence (whole entry): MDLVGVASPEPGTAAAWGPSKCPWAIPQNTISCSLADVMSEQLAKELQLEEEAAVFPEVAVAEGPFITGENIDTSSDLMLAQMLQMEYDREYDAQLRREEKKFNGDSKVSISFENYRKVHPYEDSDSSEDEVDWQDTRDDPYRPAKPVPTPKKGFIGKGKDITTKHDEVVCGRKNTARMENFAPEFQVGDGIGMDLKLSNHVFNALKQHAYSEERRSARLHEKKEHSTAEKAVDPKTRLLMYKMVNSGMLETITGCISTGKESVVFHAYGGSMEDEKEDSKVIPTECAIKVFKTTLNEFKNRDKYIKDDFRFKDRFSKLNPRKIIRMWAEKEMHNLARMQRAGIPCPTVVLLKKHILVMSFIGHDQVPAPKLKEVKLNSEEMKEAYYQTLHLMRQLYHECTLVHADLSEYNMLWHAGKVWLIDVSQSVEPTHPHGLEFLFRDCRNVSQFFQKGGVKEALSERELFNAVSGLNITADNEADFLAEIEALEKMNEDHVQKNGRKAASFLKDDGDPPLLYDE
# [3] = biological target: T2, Cyclin-dependent kinase 11A (Homo sapiens) (UniProt Q9UQ88); test: Selectivity interaction (KinomeScan (DiscoverX)) EUB0000595a CDK11A; conditions: at 10 µM
# T2 sequence (whole entry): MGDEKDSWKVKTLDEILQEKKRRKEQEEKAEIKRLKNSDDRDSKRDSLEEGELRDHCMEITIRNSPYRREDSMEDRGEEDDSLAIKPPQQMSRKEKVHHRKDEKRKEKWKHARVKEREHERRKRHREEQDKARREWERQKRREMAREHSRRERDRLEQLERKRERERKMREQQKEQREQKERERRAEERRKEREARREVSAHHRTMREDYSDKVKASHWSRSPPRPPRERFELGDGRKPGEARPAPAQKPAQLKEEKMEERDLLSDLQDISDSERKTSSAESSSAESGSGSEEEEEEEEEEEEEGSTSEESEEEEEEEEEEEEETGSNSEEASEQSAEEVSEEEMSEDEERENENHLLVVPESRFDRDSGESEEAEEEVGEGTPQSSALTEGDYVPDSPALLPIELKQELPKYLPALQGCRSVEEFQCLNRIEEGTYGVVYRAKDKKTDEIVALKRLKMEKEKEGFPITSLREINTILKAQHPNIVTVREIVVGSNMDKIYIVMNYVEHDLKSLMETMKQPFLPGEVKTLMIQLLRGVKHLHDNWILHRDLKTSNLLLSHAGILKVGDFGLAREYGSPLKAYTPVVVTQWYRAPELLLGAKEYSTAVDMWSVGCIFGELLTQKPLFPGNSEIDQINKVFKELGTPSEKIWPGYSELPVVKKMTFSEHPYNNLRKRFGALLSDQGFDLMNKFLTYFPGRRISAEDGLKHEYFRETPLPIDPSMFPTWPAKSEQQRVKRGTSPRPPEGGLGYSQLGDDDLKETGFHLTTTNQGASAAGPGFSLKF
# [4] = biological target: T3, Serine/threonine-protein kinase 3 (Homo sapiens) (UniProt Q13188); test: Selectivity interaction (KinomeScan (DiscoverX)) EUB0000618a STK3; conditions: at 10 µM
# T3 sequence (whole entry): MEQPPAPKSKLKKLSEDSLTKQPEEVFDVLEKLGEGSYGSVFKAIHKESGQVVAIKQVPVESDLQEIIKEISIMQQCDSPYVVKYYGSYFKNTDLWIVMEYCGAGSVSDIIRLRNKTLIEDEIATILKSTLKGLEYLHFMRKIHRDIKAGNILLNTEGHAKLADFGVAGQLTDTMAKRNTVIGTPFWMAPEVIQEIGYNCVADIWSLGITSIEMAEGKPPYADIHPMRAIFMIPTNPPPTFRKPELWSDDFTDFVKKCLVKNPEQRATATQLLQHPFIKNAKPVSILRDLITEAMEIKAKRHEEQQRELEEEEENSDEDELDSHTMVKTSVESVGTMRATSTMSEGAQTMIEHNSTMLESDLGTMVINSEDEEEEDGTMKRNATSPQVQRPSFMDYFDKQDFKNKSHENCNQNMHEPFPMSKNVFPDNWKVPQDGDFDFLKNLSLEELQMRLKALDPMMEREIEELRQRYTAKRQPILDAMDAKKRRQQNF
# [5] = biological target: T4, Mitogen-activated protein kinase kinase kinase kinase 2 (Homo sapiens) (UniProt Q12851); test: Selectivity interaction (Ambit KINOMEscan and KiNATiv profiling in Jurkat cells) EUB0000090b MAP4K2; format: cell-based; conditions: at 1 µM
# T4 sequence (whole entry): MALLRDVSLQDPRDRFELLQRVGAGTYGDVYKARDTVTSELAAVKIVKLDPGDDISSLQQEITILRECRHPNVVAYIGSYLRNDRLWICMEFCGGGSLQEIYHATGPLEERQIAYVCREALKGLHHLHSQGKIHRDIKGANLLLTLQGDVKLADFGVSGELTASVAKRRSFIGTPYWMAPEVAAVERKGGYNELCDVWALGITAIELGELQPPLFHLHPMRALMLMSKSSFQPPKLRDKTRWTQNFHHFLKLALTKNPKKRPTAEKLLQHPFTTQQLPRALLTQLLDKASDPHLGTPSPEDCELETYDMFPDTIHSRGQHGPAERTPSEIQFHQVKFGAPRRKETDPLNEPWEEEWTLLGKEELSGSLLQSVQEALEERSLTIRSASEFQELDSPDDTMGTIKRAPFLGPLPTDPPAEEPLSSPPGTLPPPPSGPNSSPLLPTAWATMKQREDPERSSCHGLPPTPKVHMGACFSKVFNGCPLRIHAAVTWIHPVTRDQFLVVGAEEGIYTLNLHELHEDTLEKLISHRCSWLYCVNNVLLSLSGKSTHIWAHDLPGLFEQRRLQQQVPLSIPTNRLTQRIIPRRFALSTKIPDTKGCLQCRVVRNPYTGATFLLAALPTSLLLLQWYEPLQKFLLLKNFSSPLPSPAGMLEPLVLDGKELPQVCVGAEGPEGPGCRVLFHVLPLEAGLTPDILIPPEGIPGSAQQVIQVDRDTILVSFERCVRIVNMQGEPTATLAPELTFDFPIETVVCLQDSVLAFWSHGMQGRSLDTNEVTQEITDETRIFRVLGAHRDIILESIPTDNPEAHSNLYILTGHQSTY
# Tyrosine-protein kinase CSK (Homo sapiens), sequence (P41240 2-450 limits assumed): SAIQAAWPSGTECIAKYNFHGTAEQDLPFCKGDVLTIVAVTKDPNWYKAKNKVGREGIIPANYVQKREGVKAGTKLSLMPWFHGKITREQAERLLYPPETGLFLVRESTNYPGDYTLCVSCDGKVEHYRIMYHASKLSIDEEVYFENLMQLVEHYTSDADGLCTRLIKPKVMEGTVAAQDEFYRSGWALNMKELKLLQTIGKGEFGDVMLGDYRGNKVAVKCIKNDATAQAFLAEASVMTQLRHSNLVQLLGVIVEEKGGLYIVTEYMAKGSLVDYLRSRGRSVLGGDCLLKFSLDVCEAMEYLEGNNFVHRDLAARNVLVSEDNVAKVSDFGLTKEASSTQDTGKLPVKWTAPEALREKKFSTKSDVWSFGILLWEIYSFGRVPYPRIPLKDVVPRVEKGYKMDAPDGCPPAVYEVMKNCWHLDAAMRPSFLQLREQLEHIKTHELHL
smiles,measurement,setting,value
CC(=O)Nc1cccc(-n2c(=O)n(C3CC3)c(=O)c3c(Nc4ccc(I)cc4F)n(C)c(=O)c(C)c32)c1,% of control,[1],97%
Cc1cc(F)c(C(=O)Nc2cccc(-c3nncn3C(C)C)n2)cc1-n1cnc(C2CC2)c1,% of control,[2],83%
COCC(=O)NC/C=C/c1ccc2ncnc(Nc3ccc(Oc4ccc(C)nc4)c(C)c3)c2c1 [CP-724714],% of control,[3],0.5%
O[C@H]1CC[C@H](Nc2ncc3nc(Nc4c(F)cc(F)cc4F)n([C@H]4CCOC4)c3n2)CC1,% of control,[4],73%
CN(C)C/C=C/C(=O)Nc1ccc(C(=O)N2CCCC(Nc3ncc(Cl)c(-c4c[nH]c5ccccc45)n3)C2)cc1 (stereo not given),% of control,[5],100%
